Consider 8 molecules from US6391595B1, “Transferase and amylase, process for producing the enzymes, use thereof, and gene coding for the same” (Kirin Beer Kabushiki Kaisha, priority 1994, dated 2002).

In experiment [1] the test system is recombinant novel transferase. Description: Conversion of maltooligosaccharides into α-1,α-1-transferred isomers by transferase from a transformant. It is filed as biochemical, Sulfolobus solfataricus. Particulars: 12.7 Units/ml concentrated enzyme solution (on maltotriose); 1 Unit = 1 μmol α-1,α-1-transferred isomer per hour. As for the experimental part:
Maltotriose (G3)-Maltoheptaose (G7) (all manufactured by Hayashibara Baiokemikaru Co.) were used as substrates. The crude enzyme solution obtained in Example I-14 was lyophilized, and then suspended in a 50 mM sodium acetate solution (pH 5.5) to make a concentrated enzyme solution. Each of the substrates was subjected to reaction with 12.7 Units/ml (in terms of the enzymatic activity when maltotriose is used as the substrate) of the concentrated enzyme solution to produce a corresponding α-1,α-1-transferred isomer. Each reaction product was analyzed by the method described in Example I-1 to examine the yield and the enzymatic activity. Incidentally, as to the enzymatic activity shown in Table 38, 1 Unit is defined as an enzymatic activity of transferring maltooligosaccharide to produce 1 μmol per hour of a corresponding α-1,α-1-transferred isomer.

Experiment [2] concerns the target T1, amylase derived from the Sulfolobus solfataricus strain KM1 (Saccharolobus solfataricus, UniProt Q55088).
T1 construct: endogenous in cells; host or cells: Sulfolobus solfataricus strain KM1 cells
T1 sequence (Q55088 1-559): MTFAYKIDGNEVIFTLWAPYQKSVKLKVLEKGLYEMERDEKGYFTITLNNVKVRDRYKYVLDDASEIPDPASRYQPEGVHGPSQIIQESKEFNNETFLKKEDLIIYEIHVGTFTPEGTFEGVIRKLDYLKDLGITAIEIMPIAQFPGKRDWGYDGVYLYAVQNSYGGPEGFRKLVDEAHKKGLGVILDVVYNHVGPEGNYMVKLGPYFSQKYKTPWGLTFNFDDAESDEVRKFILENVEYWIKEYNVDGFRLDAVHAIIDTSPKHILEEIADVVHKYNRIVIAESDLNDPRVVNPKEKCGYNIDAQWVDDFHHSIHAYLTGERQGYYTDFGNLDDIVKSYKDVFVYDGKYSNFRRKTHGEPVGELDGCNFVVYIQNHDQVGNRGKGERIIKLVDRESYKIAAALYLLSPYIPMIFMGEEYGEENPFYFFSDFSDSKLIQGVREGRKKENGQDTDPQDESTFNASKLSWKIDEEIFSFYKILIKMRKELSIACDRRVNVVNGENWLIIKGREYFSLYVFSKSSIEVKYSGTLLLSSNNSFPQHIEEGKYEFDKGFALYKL
Description: Substrate specificity of the purified amylase (hydrolyzing properties, TSK-gel Amide-80 HPLC). The class given is biochemical. Particulars: for Liberated oligosaccharide / Production rate of mono- and disaccharides: 25.0 Units/ml enzyme, 10 mM substrate (amylopectin and soluble starch 2.8%); for Production rate of mono- and disaccharides: 1 Unit = 1 μmol per hour. As to the method: The hydrolyzing properties were analyzed by allowing 25.0 Units/ml (in terms of the enzymatic activity when maltotriosyltrehalose is used as the substrate) of the present purified enzyme to act on the various 10 mM substrates (except amylopectin and soluble starch were used as 2.8% solutions) listed in Table 16 below, and the hydrolyzed products were also analyzed.
Incidentally, each enzymatic activity in Table 16 is expressed with such a unit as 1 Unit equals the activity of liberating 1 μmol of each of the monosaccharide and disaccharide per hour.

For experiment [3], the target named is T2, recombinant novel amylase (Saccharolobus solfataricus, UniProt Q55088).
T2 sequence (Q55088 1-559): T1 sequence (Q55088 1-559)
The experiment in a line: Substrate specificity of the recombinant novel amylase (crude enzyme solution). Conditions: for Liberated oligosaccharide / Production rate of mono- and disaccharides: 35.2 Units/ml crude enzyme solution, 10 mM substrate (amylopectin and soluble starch 3.0%); for Production rate of mono- and disaccharides: 1 Unit = 1 μmol per hour.

Experiment [4] concerns transferase derived from the Sulfolobus solfataricus strain KM1. The experiment in a line: Conversion of maltooligosaccharides into α-1,α-1-transferred isomers by purified transferase. The class given is biochemical. Particulars: substrate 100 mM; for Enzyme activity: enzyme 13.5 Units/ml (on maltotriose), 1 Unit = 1 umol α-1,α-1-transferred isomer per hour. As to the method:
As the substrates, maltotriose (G3)-maltoheptaose (G7) were used in a concentration of 100 mM. The purified enzyme obtained in Example I-2 was then allowed to act on each of the above substrates in an amount of 13.5 Units/ml (in terms of the enzyme activity when the substrate is maltotriose) to produce a corresponding α-1,α-1-transferred isomer. Each product was analyzed by the method in Example I-1, and investigated its yield and enzyme activity. Incidentally, in Table 10, each enzymatic activity value was expressed with such a unit as 1 Unit equals the activity of converting the maltooligosaccharide into 1 umol of corresponding α-1,α-1-transferred isomer per hour.

In experiment [5] the target is T3, swine pancreatic α-amylase (Sus scrofa, UniProt P00690).
T3 construct: purchased Sigma Co. A-6255
T3 sequence (P00690 16-511): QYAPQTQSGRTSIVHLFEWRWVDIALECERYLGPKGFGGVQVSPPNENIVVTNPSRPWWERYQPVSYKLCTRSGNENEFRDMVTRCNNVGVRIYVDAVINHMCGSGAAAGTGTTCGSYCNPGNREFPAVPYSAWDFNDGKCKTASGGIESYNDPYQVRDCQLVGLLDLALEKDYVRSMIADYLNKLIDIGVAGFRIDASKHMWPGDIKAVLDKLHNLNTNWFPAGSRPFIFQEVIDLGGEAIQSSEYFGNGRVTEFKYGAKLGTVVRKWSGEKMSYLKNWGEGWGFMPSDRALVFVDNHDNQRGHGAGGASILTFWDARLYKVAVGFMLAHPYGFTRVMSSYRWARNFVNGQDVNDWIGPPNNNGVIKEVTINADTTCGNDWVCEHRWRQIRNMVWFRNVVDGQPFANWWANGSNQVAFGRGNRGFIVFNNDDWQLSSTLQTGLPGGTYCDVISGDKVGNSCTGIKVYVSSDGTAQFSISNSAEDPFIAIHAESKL
The experiment in a line: Hydrolysis of oligosaccharides by pancreatic α-amylase (comparative). The class given is biochemical. Conditions: 1 Unit/ml α-amylase, 10 mM substrate, pH 6.9, 20° C.; for Production rate of di- and trisaccharides: 1 Unit = 1 umol per hour. As to the method:
Swine pancreatic α-amylase is known to hydrolyze maltooligosaccharide from the reducing end by two or three sugar units [“Denpun.Kanren Toushitsu Kouso Jikken-hou” (“Experimental methods in enzymes for starch and relating saccharides”), p 135, written by Michinori Nakamura and Keiji Kainuma, published by Gakkai-Shuppan-Sentah]. Upon this, a swine pancreatic α-amylase (manufactured by Sigma Co., A-6255) was analyzed the hydrolyzing properties and the hydrolysates as a comparative example for the novel amylase of the present invention. […] The activity of producing disaccharide and trisaccharide was employed as the index of the enzymatic activity, and the analysis was performed by the TSK-gel Amide-80 HPLC analyzing method described in Example II-1.
Incidentally, the enzymatic activity values in Table 17 were expressed with such a unit as 1 Unit equals the activity of liberating 1 umol of each oligosaccharide per hour.

The subject of experiment [6] is transferase derived from the Sulfolobus solfataricus strain KM1. Description: Substrate specificity of the transferase (production of α-1,α-1-transferred isomer). It is filed as biochemical. As for the experimental part: It was investigated whether or not the present enzyme acts on each of the substrates listed in Table 9 below to produce its α-1,α-1-transferred isomer. Here, the activity measurement was performed in the same manner as in Example I-1.

Experiment [7] has the same test system. The experiment in a line: Influence of activators and inhibitors on glucosyltrehalose-producing activity. The class given is biochemical. Particulars: Concentration 0.5 mM.
Experiment [8] deals with T1, amylase derived from the Sulfolobus solfataricus strain KM1. Description: biochemical. It is filed as biochemical. Conditions: Concentration 0.5 mM.

As for `OC[C@H]1O[C@H](O[C@H]2[C@H](O)[C@@H](O)[C@@H](O[C@H]3[C@H](O)[C@@H](O)C(O)O[C@@H]3CO)O[C@@H]2CO)[C@H](O)[C@@H](O)[C@@H]1O` (mixture of isomers) [Maltotriose (G3), Maltotriose], the Enzyme activity in experiment [1] is given as 12.7 unit/ml; in experiment [4], 13.5 units/ml. The Liberated oligosaccharide entry was “Glucose + G2” in experiment [2], “Glucose + G2” in experiment [3] and “not decomposed” in experiment [5]. Further, the figures for the “Production rate of mono- and disaccharides” value in experiment [2] and in experiment [3] were 0.30 units/ml and 0.27 units/ml, respectively. Further, the “Production rate of di- and trisaccharides” value in experiment [5] came to 0 units/ml.
For the molecule `OC[C@H]1O[C@H](OC[C@H]2O[C@H](OC[C@H]3O[C@H](OC[C@H]4O[C@H](OC[C@H]5OC(O)[C@H](O)[C@@H](O)[C@@H]5O)[C@H](O)[C@@H](O)[C@@H]4O)[C@H](O)[C@@H](O)[C@@H]3O)[C@H](O)[C@@H](O)[C@@H]2O)[C@H](O)[C@@H](O)[C@@H]1O` (stereo partly drawn) [Isomaltopentaose], in experiment [2], the “Action of the enzyme on the substrate” value is reported as “did not act”; the Liberated oligosaccharide result is listed as “not decomposed”; the “Production rate of mono- and disaccharides” value is reported as 0 units/ml. The “Action of the enzyme on the substrate” value in experiment [6] is listed as “did not act”. In experiment [3], the “Action of the enzyme on the substrate” value is recorded as “did not act”; the Liberated oligosaccharide result is “not decomposed”; the “Production rate of mono- and disaccharides” value stood at 0 units/ml.
On to `OC[C@H]1O[C@H](OC[C@H]2O[C@H](OC[C@H]3O[C@H](OC[C@H]4OC(O)[C@H](O)[C@@H](O)[C@@H]4O)[C@H](O)[C@@H](O)[C@@H]3O)[C@H](O)[C@@H](O)[C@@H]2O)[C@H](O)[C@@H](O)[C@@H]1O` (stereo partly drawn) [Isomaltotetraose], for which, in experiment [2], the “Action of the enzyme on the substrate” value is given as “did not act”; the Liberated oligosaccharide result is given as “not decomposed”; the “Production rate of mono- and disaccharides” value stood at 0 units/ml. The “Action of the enzyme on the substrate” value in experiment [6] is recorded as “did not act”. Besides, in experiment [3], the “Action of the enzyme on the substrate” value was “did not act”; the Liberated oligosaccharide result is “not decomposed”; the “Production rate of mono- and disaccharides” value was 0 units/ml.
In the case of `OC[C@H]1O[C@H](OC[C@H]2O[C@H](OC[C@H]3OC(O)[C@H](O)[C@@H](O)[C@@H]3O)[C@H](O)[C@@H](O)[C@@H]2O)[C@H](O)[C@@H](O)[C@@H]1O` (stereo partly drawn) [Isomaltotriose], the “Action of the enzyme on the substrate” value in experiment [2], in experiment [6] and in experiment [3] was “did not act” in each case. The Liberated oligosaccharide entry in experiment [2] and in experiment [3] was “not decomposed” throughout. Besides, the “Production rate of mono- and disaccharides” value in experiment [2] and in experiment [3] was 0 units/ml in each case.
With `OC[C@H]1O[C@H](O[C@H]2[C@H](O)[C@@H](O)[C@@H](O[C@H]3[C@H](O)[C@@H](O)[C@@H](O[C@H]4[C@H](O)[C@@H](O)C(O)O[C@@H]4CO)O[C@@H]3CO)O[C@@H]2CO)[C@H](O)[C@@H](O)[C@@H]1O` (stereo partly drawn) [Maltotetraose (G4), Maltotetraose], the figures for the Residual activity in experiment [7] and in experiment [8] were 97.4% and 108.5%, respectively. In addition, the Enzyme activity in experiment [1] stood at 72.5 unit/ml; in experiment [4] it was 76.3 units/ml. Moreover, the Liberated oligosaccharide entry in experiment [2], in experiment [3] and in experiment [5] was “Glucose + G2 + G3” in each case. The “Production rate of mono- and disaccharides” value was 0.31 units/ml in experiment [2] and 0.26 units/ml in experiment [3]. Also, the “Production rate of di- and trisaccharides” value in experiment [5] was found to be 0.49 units/ml.
Take Maltoheptaose [Maltoheptaose (G7)]: the Residual activity in experiment [7] is listed as 93.5%; in experiment [8], 129.2%. The Enzyme activity in experiment [1] was found to be 60.2 unit/ml; in experiment [4] it was 70.5 units/ml. The Liberated oligosaccharide result in experiment [2] is “Glucose + G2 + G5 + G6”. In experiment [2], the “Production rate of mono- and disaccharides” value is on record as 1.80 units/ml. Besides, the “Production rate of di- and trisaccharides” value in experiment [5] is reported as 4.45 units/ml.
Turning to Maltohexaose [Maltohexaose (G6)], the Residual activity in experiment [7] worked out at 91.0%; in experiment [8], 123.8%. Further, the values for the Enzyme activity in experiment [1] and in experiment [4] were 87.3 unit/ml and 100.9 units/ml, respectively. Also, in experiment [2], the Liberated oligosaccharide entry is reported as “Glucose + G2 + G4 + G5”. Further, the “Production rate of mono- and disaccharides” value in experiment [2] is 1.74 units/ml. Besides, the “Production rate of di- and trisaccharides” value in experiment [5] came out at 4.44 units/ml.
For the molecule Maltopentaose [Maltopentaose (G5)], the Residual activity in experiment [7] is on record as 101.9%; in experiment [8], 105.8%. The Enzyme activity is 103.5 unit/ml in experiment [1] and 111.3 units/ml in experiment [4]. Further, the Liberated oligosaccharide result in experiment [2] and in experiment [3] was “Glucose + G2 + G3 + G4” throughout. Moreover, the “Production rate of mono- and disaccharides” value in experiment [2] amounted to 1.79 units/ml; in experiment [3], 2.12 units/ml. Further, in experiment [4], the “Activity relative to G3” value is listed as “approximately 8 times”. For the same molecule, the “Production rate of di- and trisaccharides” value in experiment [5] came to 6.12 units/ml.
